Results published in PMC3102069, “Charge Isomers of Myelin Basic Protein: Structure and Interactions with Membranes, Nucleotide Analogues, and Calmodulin” (PLoS ONE, 2011).

Target: T1, rmC1 (recombinant murine 18.5-kDa myelin basic protein, C1 charge component); rmC8 is its six-fold Gln variant (Mus musculus, UniProt P04370)
T1 construct: gene Mbp
Experiment: fluorescence, FRET from Trp to mant (ex […] nm, em […] nm)
Format: binding
Details: 0.25 µM rmC1, 0.5-12.5 µM nucleotide, 10 mM HEPES pH 7.5; labelled compound

T1 sequence (P04370 1-169 isoform P04370-5 limits assumed): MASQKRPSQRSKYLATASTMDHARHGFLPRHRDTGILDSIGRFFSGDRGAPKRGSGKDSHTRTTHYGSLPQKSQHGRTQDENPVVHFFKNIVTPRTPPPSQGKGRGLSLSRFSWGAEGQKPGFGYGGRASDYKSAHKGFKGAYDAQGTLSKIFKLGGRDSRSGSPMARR

CNc1ccccc1C(=O)O[C@H]1[C@@H](O)[C@H](n2cnc3c(N)ncnc32)O[C@@H]1COP(=O)(O)OP(=O)(O)OP(=O)(O)O [mant-ATP]
fluorescence, FRET from Trp to mant (ex 280 nm, em 448 nm): while both mant-ATP and mant-GTP bound to rmC1, mant-AMP did not
